# Measurements published in patent publication US9073900B2, “Dihydroquinone derivatives of piperidine and piperazine” (KING FAHD UNIVERSITY OF PETROLEUM AND MINERALS, priority 2013, dated 2015).
row,Structure (SMILES),melting point
1,"O=C1NCc2ccc(N3CCN(Cc4cncc(-c5ccc(F)cc5)c4)CC3)cc2N1 [Compound 5d, 7-(4-((5-(4-fluorophenyl)pyridin-3-yl)methyl)piperazin-1-yl)-3,4-dihydroquinazolin-2(1H)-one]",180 to 181 °C
2,"O=C1NCc2ccc(N3CCN(Cc4ccc(-c5ccc(F)cc5)cc4)CC3)cc2N1 [Compound 5b, 7-(4-((4′-fluorobiphenyl-4-yl)methyl)piperazin-1-yl)-3,4-dihydroquinazolin-2(1H)-one]",220 to 221 °C
3,"O=C1NCc2ccc(N3CCN(Cc4ccc(-c5ccccc5)cc4)CC3)cc2N1 [Compound 5a, 7-(4-(biphenyl-4-ylmethyl)piperazin-1-yl)-3,4-dihydroquinazolin-2(1H)-one]",134 to 135 °C
4,"O=C1NCc2ccc(N3CCN(Cc4cncc(C5=CCCC5)c4)CC3)cc2N1 [Compound 5f, 7-(4((5-cyclopentenylpyridin-3-yl)methyl)piperazin-1-yl)-3,4-dihydroquinazolin-2(1H)-one]",185 to 186 °C
5,"O=C1NCc2ccc(C3CCN(Cc4cncc(C5=CCCC5)c4)CC3)cc2N1 [Compound 6f, 7-(1-((5-cyclopentenylpyridin-3-yl)methyl)piperidin-4-yl)-3,4-dihydroquinazolin-2(1H)-one]",166 to 167 °C
6,"O=C1NCc2ccc(C3CCN(Cc4ccc(-c5ccc(F)cc5)cc4)CC3)cc2N1 [Compound 6b, 7-(1-((4′-fluorobiphenyl-4-yl)methyl)piperidin-4-yl)-3,4-dihydroquinazolin-2(1H)-one]",160 to 161 °C
